Test results reported in article PMC9886266, “New [1,2,4]triazolo[4,3-c]quinazolines as intercalative Topo II inhibitors: Design, synthesis, biological evaluation, and in silico studies” (PLOS ONE, 2023).

Assays:
HCT-116 cell line = assay: MTT anti-proliferative assay, HCT-116; type: cell-based; conditions: Homo sapiens, 48 h, three independent experiments, read-out: In vitro cytotoxicity IC50, HCT-116
Description: In vitro antiproliferative activities of the target molecules were assessed against two human cancer cell lines namely, hepatocellular carcinoma (HepG2) and colorectal carcinoma (HCT-116) using MTT assay.
The anti-proliferative activity of the synthesized compounds was assessed using MTT assay protocol. A panel of human cancer cell lines namely, colorectal carcinoma (HCT-116) and hepatocellular carcinoma (HepG2) was used in this test. Doxorubicin was used as a positive control. The cell lines were got from ATCC (American Type Culture Collection) via the Holding company for biological products and vaccines (VACSERA, Cairo, Egypt). The anti-proliferative activities of the tested compounds were determined quantitatively as follows:
At first, the cells were cultured into a medium of RPMI-1640 with 10% fetal bovine serum. Then, two different antibiotics were added at 37°C in a 5% CO2 incubator: penicillin (100 units/mL) and streptomycin (100 μg/mL). Next, we seeded the cells in a 96-well plate by a density of 1.0 x 10^4 cells / well at 37°C for 48 h under 5% CO2. The synthesized compounds with different concentrations were applied into the cell lines and incubated for 48 h. After 48 h, 20 μl of MTT solution (5mg/mL) was added and incubated for 4 h. Then, DMSO (100 μl) was added into each well to dissolve the formed purple formazan. After that, a colorimetric assay was measured and recorded at absorbance of 570 nm using a plate reader (EXL 800, USA). The relative cell viability in percentage was calculated as (A570 of treated samples/A570 of untreated sample) X 100.
S2: Biological evaluation
S2.1. In vitro cytotoxic activity
The anti-proliferative activity of the synthesized compounds was assessed using MTT assay protocol. A panel of human cancer cell lines namely, colorectal carcinoma (HCT-116) and hepatocellular carcinoma (HepG2) was used in this test. As we targeted the DNA and Topo […]
cell lines were got from ATCC (American Type Culture Collection) via the Holding company for biological products and vaccines (VACSERA, Cairo, Egypt). The anti -proliferative activities of the tested compounds were determined quantitatively as follows:
At first, the cells were cultured into a medium of RPMI-1640 with 10% fetal bovine serum.
Then, two different antibiotics were added at 37 ᵒC in a 5% CO2 incubator: penicillin (100 units/mL) and streptomycin (100 µg/mL). Next, we seeded the cells in a 96 -well plate by a density of 1.0 x 10^4 cells / well at 37 ᵒC for 48 h under 5% CO2. The synthesized compounds with different concentrations were applied into the cell lines and incubated for 48 h. After 48 h, 20 µl of MTT solution (5mg/mL) was added and incubated for 4 h. Then, DMSO (100 µl) was added into each well to dissolve the formed purple formazan. After that, a colorimetric assay was measured and recorded at absorbance of 570 nm using a plate reader (EXL 800, USA). The relative cell viability in percentage was calculated as (A570 of treated samples/A570 of untreated sample) X 100. […]

BAX = assay: Western blot, BAX level; type: cell-based, human; conditions: HCT-116, 2.44 μM, 48 h; control = 1.00
Description: In comparison to the control, compound 16 elevated the level of the proapoptotic protein (BAX) by 2.18 times. […] Furthermore, compound 16 enhanced the BAX/Bcl-2 ratio by 4.38-fold in comparison to control cells.
The effects of compound 16 on the expression of BAX, and Bcl‐2 were determined using Western blot analysis [62–64]as described in Electronic Supplementary Material S2.7 in S1 Appendix. […]
for 48 h. Then, the cells were fixed in 70% ethanol at 4 °C for 12 h. After that, the cells were washed with cold PBS, incubated with 100 μl RNase A at 37 °C for 30 min, and stained with 400 μl PI in the dark at room temperature for further 30 min. The stained cells were measured using Epics XL-MCL™ Flow Cytometer (Beckman Coulter), and the data were analyzed using Flowing software (version 2.5.1, Turku Centre for Biotechnology, Turku, Finland).
S2.6. Flow cytometry analysis for apoptosis
Flow cytometry cell apoptosis analysis was used to investigate the apoptotic effect of the synthesized compounds. […] The stained cells were measured using Epics XL-MCL™ Flow Cytometer and analyzed using Flowing software. […]
The proteins expression of BAX, and Bcl‐2 were determined using Western blot analysis. […] Total protein concentrations in the supernatant were determined colorimetrically using the Pierce 660 nm Protein Assay method (Thermo Fisher Scientific, Rockford, IL), with BSA as the standard. […]

For `CCCNc1nc2ccccc2c2nnc(C(F)(F)F)n12` [Compound 16, N-Propyl-3-(trifluoromethyl)-[1,2,4]triazolo[4,3-c]quinazolin-5-amine], the IC50 (HCT-116 cell line) was 2440 ± 100 nM and the “Protein expression (normalized to β-actin) BAX” value (BAX) was 2.18 ± 0.12.
